These results are taken from patent US4732910A, “Enzyme Inhibiting substance” (Toyo Jozo Co, Ltd., priority 1985, dated 1988).

The structures appear in SMILES notation. Where “and” joins values, the source holds several entries; their conditions need not be identical. Identical values can stand only once. Like-named read-outs stand apart in the source and are kept apart here.

Data set [1] addresses T1, Papain (Carica papaya, UniProt P00784).
T1 construct: purchased Boehringer Mannheim AG
T1 sequence (P00784 134-345): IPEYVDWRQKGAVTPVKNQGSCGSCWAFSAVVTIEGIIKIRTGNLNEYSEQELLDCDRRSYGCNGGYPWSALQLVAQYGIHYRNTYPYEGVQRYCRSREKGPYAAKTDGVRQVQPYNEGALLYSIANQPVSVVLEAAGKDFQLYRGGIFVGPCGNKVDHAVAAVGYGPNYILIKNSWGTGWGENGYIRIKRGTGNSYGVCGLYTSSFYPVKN
Put plainly: Papain inhibitory activity (casein hydrolysis). It counts as biochemical. The protocol: (§1) The 0.2 ml of a solution of papain (300 μg/ml, Boeringer Mannheim AG), 0.25 ml of 40 mM cysteine solution dissolved in 5 mM EDTA solution adjusted pH to 6.8 with sodium hydroxide and 0.55 ml of the 50 mM phosphate buffer (pH 6.8) with or without inhibitor were mixed and incubated at 40° C. for 10 min., followed by adding 4 ml of 1.5% casein solution dissolved in a 50 mM phosphate buffer (pH 6.8) to carry out a reaction at 40° C. for 15 min. Then, 2 ml of 1.1M trichloroacetic acid is added to terminate the reaction. After being left to stand at room temperature for one hour, the reaction mixture is centrifuged at 3500 rpm for 10 minutes and absorbance (S) of the trichloroacetic acid soluble fraction at 280 mμ is measured. Similarly, absorbance (B) at 280 mμ is measured when no inhibitors are added. The percent inhibition was calculated by the following formula: […]
(§2) The amount of inhibitor for 50% inhibition was expressed as IC50.

Data set [2] has as its target T2, α-Chymotrypsin (Bos taurus, UniProt P00766).
T2 construct: purchased PL Biochemical Co
Put plainly: α-Chymotrypsin inhibitory activity (casein hydrolysis). It counts as biochemical. The text has this:
(§3) The enzyme reactions were all measured according to the prescribed methods.
(§4) (α-chymotrypsin and pepsin used are those manufactured by PL Biochemical Co., and trypsin is that manufactured by Wako Junyaku Co.)

Data set [3] concerns the target T3, Pepsin (Sus scrofa, UniProt P00791).
T3 construct: purchased PL Biochemical Co
Put plainly: Pepsin inhibitory activity (casein hydrolysis). It counts as biochemical.
Text: as §3, §4

In data set [4] the test system is Ficin. Put plainly: Ficin inhibitory activity (casein hydrolysis). It counts as biochemical. Conditions: enzyme 60 μg protein; substrate casein. The protocol:
as §1, §2
(§5) Inhibitory activities against ficin (protein amount: 60 μg, manufactured by Boehringer Mannheim AG) and bromelain (protein content: 100 μg, manufactured by Boehringer Mannheim AG) are also measured by the similar method.

Data set [5] can be described thus: Solubility. The class given is physicochemical. An excerpt: Insoluble in and pyridine.
Data set [6] concerns the target T4, Bromelain (Ananas comosus, UniProt P14518).
T4 construct: purchased Boehringer Mannheim AG
T4 sequence (P14518 1-212): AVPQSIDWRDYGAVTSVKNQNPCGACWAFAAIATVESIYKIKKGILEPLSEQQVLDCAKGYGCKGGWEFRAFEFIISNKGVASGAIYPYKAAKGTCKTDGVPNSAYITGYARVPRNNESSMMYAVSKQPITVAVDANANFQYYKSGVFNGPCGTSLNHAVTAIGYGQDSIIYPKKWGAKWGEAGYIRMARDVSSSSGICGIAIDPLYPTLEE
Put plainly: Bromelain inhibitory activity (casein hydrolysis). The class given is biochemical. The protocol:
as §1, §2, §5

Data set [7] concerns production of IgG antibody. Kind of data set: Activity on the production of IgG antibody in mice (passive hemagglutination test). It counts as in vivo, BDF1 strain male mice. The settings on record: for IgG antibody titers, individual mice: 200 mg/Kg ip 2 hours before immunization with egg albumin + Freund complete adjuvant, blood after 2 weeks, passive hemagglutination; for Effect on production of IgG antibody (in words): mice, 200 mg/Kg ip. The protocol:
Activity on the production of IgG antibody was examined by the following method.
Estatin A or Estatin B were administered ip to BDF1 strain male mice weighing 18-22 g (one group 5 mice) at a dose of 200 mg/Kg. Control group (10 mice) received only physiological saline.
After 2 hours from the administration each mouse was immunized by intradermal injection with 0.2 mg/0.1 ml of egg albumin together with equal volume of Freund complete adjuvant into the 2 separate sites of the back of the mice. After 2 weeks blood was collected and antibody titers were determined by passive hemagglutination test using glutalaldehyde as coupling reajent. The results are shown below. ______________________________________ Test drugs IgG antibody titers ______________________________________ Estatin A 12800, 6450, 25600 12800, 12800 Estatin B 6400, 25600, 12800 25000, 12800 Control 12800, 25600, 25600, 12800, 6450 12800, 12800, 12800, 12800, 12800 ______________________________________

In data set [8] the test system is Trypsin. Kind of data set: Trypsin inhibitory activity (casein hydrolysis). The class given is biochemical. Conditions: enzyme 1000 μg protein; substrate casein.
Text: as §3, §4

Data set [9] has as its system production of IgE antibody. Put plainly: Activity on the production of IgE antibody in mice (PCA reaction). It counts as in vivo, BDF1 strain male mice. Conditions: for IgE antibody titers (PCA antibody titers), individual mice: 200 mg/Kg ip 2 hours before immunization with egg albumin + aluminum hydroxide, blood after 14 days, reciprocal of maximum dilution with positive blueing in rats; for Effect on production of IgE antibody (in words): mice, 200 mg/Kg ip. The protocol: Activity on the production of IgE antibody was examined by the following method.
Estatin A or Estatin B dissolved in physiological saline were administered ip to BDF1 strain male mice weighing 18-22 g (one group 5 mice) at a dose of 200 mg/Kg. Control group (10 mice) received only physiological saline. After 2 hours from the administration, 4 mg of aluminum hydroxide together with 10 μg of egg albumin was administered ip to immunize them. After 14 days from the immunization, blood was collected and IgE antibody titer was assayed by PCA reaction (See "International Archives of Allergy and Applied Immunology" Vol. 48, Page 16, 1975.).
That is, serum samples were serially diluted and injected intradermally into the back of Wistar strain male rats weighing 200-250 g. After 48 hours, 1 ml of 1% Evans blue in physiological saline containing 2 mg of egg albumin was administered iv and rats were killed 30 min. later, and blueing of saline were observed. […] The results are shown below. ______________________________________ PCA Antibody TITERS Test drugs IgE antibody titers ______________________________________ Estatin A <100 <100 <100 <100 <100 Estatin B <100 <100 <100 <100 100 Control 400 800 800 800 800 800 1600 1600 1600 3200 ______________________________________

Data set [10] concerns mice. Put plainly: Acute toxicity. The class given is in vivo. The settings on record: ip, 400 mg/Kg.
Data set [11] is described as follows: Stability. The settings on record: stable at a pH of.

T3 sequence (P00791 60-385): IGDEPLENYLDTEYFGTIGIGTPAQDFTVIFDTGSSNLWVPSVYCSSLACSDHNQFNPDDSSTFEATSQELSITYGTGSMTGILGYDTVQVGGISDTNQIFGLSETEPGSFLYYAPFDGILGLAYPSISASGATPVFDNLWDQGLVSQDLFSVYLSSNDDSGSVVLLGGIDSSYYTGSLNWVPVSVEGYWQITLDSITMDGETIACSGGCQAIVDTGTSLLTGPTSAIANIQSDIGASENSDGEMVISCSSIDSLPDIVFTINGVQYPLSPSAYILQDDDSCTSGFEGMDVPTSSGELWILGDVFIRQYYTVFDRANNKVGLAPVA

As to `N=C(N)NCCCCNC(=O)[C@H](Cc1ccccc1)NC(=O)C1OC1C(=O)O` (mixture of isomers) [N-[N-(D- and L-3-trans-carboxyoxiran-2-carbonyl-L-phenylalanyl]agmatine], the IC50 in data set [1] (enzyme 60 μg protein, substrate casein, read-out: IC50 concentration, Papain (converted)) was 74.1 nM.
Take `N=C(N)NCCCCNC(=O)[C@H](Cc1ccccc1)NC(=O)[C@H]1O[C@@H]1C(=O)O` [Estatin A, N-[N-(L-3-trans-carboxyoxiran-2-carbonyl)-L-phenylalanyl]agmatine]: the IC50 in [2] (enzyme 200 μg protein, substrate casein, read-out: IC50 concentration, α-Chymotrypsin) was more than 128000 nM. The IC50 in [3] (enzyme 100 μg protein, substrate casein, read-out: IC50 concentration, Pepsin) was more than 128000 nM. This molecule gave an IC50 in [1] of 66.4 nM. Besides, the “IC50 concentration, Ficin” value in data set [4] stood at 0.039 µg/mL. Further, in data set [5], the “Solubility in benzene, chloroform, ethyl acetate and petroleum ether” value is on record as “Insoluble”; the “Solubility in water, acetic acid, dimethyl sulfoxide and pyridine” value is “Soluble”. The IC50 in data set [6] (enzyme 100 μg protein, substrate casein, read-out: IC50 concentration, Bromelain (converted)) was 370 nM. In data set [7], the “IgG antibody titers, individual mice” value was 12800 (3×) and 6450 and 25600; the “Effect on production of IgG antibody (in words)” value is “do not inhibit the production of IgG antibody”. Besides, in [8], the “IC50 concentration, Trypsin” value is more than 50 µg/mL. Also, in [9], the “IgE antibody titers (PCA antibody titers), individual mice” value was less than 100 and the “Effect on production of IgE antibody (in words)” value is recorded as “inhibit the production of IgE antibody”. In [10], the Acute toxicity entry was “no toxic effect”. Besides, the “Stability: pH at which stable” value in data set [11] is reported as 2-9.
For `N=C(N)NCCCCNC(=O)[C@H](Cc1ccc(O)cc1)NC(=O)[C@H]1O[C@@H]1C(=O)O` [Estatin B, N-[N-(L-3-trans-carboxyoxiran-2-carbonyl)-L-tyrosyl]agmatine], the IC50 in data set [2] was more than 123000 nM; in [3] it was more than 123000 nM; in [1], 66.3 nM; in [6] it was 356 nM. In addition, the “IC50 concentration, Ficin” value in data set [4] worked out at 0.041 µg/mL. Besides, the “Solubility in benzene, chloroform, ethyl acetate and petroleum ether” value in data set [5] is given as “Insoluble”. In data set [5], the “Solubility in water, acetic acid, dimethyl sulfoxide and pyridine” value was “Soluble”. The “IgG antibody titers, individual mice” value in [7] was 6400 and 25600 and 12800 (2×) and 25000. The “Effect on production of IgG antibody (in words)” value in data set [7] was “do not inhibit the production of IgG antibody”. Moreover, in data set [8], the “IC50 concentration, Trypsin” value is more than 50 µg/mL. In data set [9], the “IgE antibody titers (PCA antibody titers), individual mice” value was < 100 (4×) and 100. Moreover, in [9], the “Effect on production of IgE antibody (in words)” value is “inhibit the production of IgE antibody”. Also, the Acute toxicity entry in data set [10] was “no toxic effect”.
